Experimental data as given in ChEMBL document CHEMBL1201862, “PubChem BioAssay data set” (2004).
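Grown in 96-well plates, cells were treated for 48 hours with each compound at five concentrations. Insufficient inhibition: endpoint recorded as highest concentration tested. The concentration for 50% growth inhibition is given as GI50.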 Calls of active or inactive are those of the source. Rule as the data show it: active = GI50 up to about 1.1 µM and inactive = higher. Where a SMILES comes first, the peptide text is derived from it. [ ]: non-standard residue; d: D form. The star is where a group is joined. ξ: configuration not given here. NMeF = CN[C@@H](Cc1ccccc1)C(=O)O; NMeV = CN[C@H](C(=O)O)C(C)C; ξNMeN = CNC(CC(N)=O)C(=O)O; NMeA = CN[C@@H](C)C(=O)O; ξNMeV = CNC(C(=O)O)C(C)C; Boc = CC(C)(C)OC(=O)*

Legend:
Assay in all cases: DTP human tumour cell line panel, 48 h
LOX IMVI = system: LOX IMVI
NCI-H460 = system: NCI-H460
A549 = system: A549
SF-295 = system: SF-295
NCI-H522 = system: NCI-H522
BT-549 = system: BT-549
MDA-N = system: MDA-N
T47D = system: T47D
A498 = system: A498
SF-268 = system: SF-268
MDA-MB-435 = system: MDA-MB-435
DU-145 = system: DU-145
SK-OV-3 = system: SK-OV-3
ACHN = system: ACHN
M19-MEL = system: M19-MEL
HOP-92 = system: HOP-92
SNB-75 = system: SNB-75
KM12 = system: KM12
NCI-H226 = system: NCI-H226
EKVX = system: EKVX

Compound	GI50 (LOX IMVI)	GI50 (NCI-H460)	GI50 (A549)	GI50 (SF-295)	GI50 (NCI-H522)	GI50 (BT-549)	GI50 (MDA-N)	GI50 (T47D)	GI50 (A498)	GI50 (SF-268)	GI50 (MDA-MB-435)	GI50 (DU-145)	GI50 (SK-OV-3)	GI50 (ACHN)	GI50 (M19-MEL)	GI50 (HOP-92)	GI50 (SNB-75)	GI50 (KM12)	GI50 (NCI-H226)	GI50 (EKVX)
O=C1/C(=C/c2ccc(O)c(O)c2)CCC/C1=C\c1ccc(O)c(O)c1	2.11 µM (inactive)	3.45 µM (inactive)	7.41 µM (inactive)	8.07 µM (inactive)	0.729 µM (active)	4.74 µM (inactive)	3.13 µM (inactive)	3.87 µM (inactive)	7.64 µM (inactive)	3.02 µM (inactive)	2.91 µM (inactive)	4.5 µM (inactive)	7.96 µM (inactive)	2.69 µM (inactive)	3.43 µM (inactive)	2.98 µM (inactive)	3.4 µM (inactive)	3.95 µM (inactive)	5.6 µM (inactive)	14.3 µM (inactive)
COc1ccc2c(c1)c1c3n2CCNN=C3CCC1	> 64.6 µM (inactive)	> 100 µM (inactive)	> 83.8 µM (inactive)	> 100 µM (inactive)	21.5 µM (inactive)				> 100 µM (inactive)	88.7 µM (inactive)			> 75.2 µM (inactive)	72.4 µM (inactive)	> 100 µM (inactive)	> 49.2 µM (inactive)	48.6 µM (inactive)	> 100 µM (inactive)	> 100 µM (inactive)	> 100 µM (inactive)
O=C(O)c1ccc(S(=O)(=O)c2ccccc2)c([N+](=O)[O-])c1	> 100 µM (inactive)	> 100 µM (inactive)	> 100 µM (inactive)	> 100 µM (inactive)	> 100 µM (inactive)				> 100 µM (inactive)	> 100 µM (inactive)			> 100 µM (inactive)	> 100 µM (inactive)	> 100 µM (inactive)	> 100 µM (inactive)	> 100 µM (inactive)	> 100 µM (inactive)	> 100 µM (inactive)	> 100 µM (inactive)
CC(C)NC(C)Cc1ccccc1 (stereo not drawn)	> 100 µM (inactive)	> 100 µM (inactive)	> 100 µM (inactive)	> 100 µM (inactive)	> 100 µM (inactive)				> 100 µM (inactive)	> 100 µM (inactive)			> 100 µM (inactive)	> 100 µM (inactive)	> 100 µM (inactive)	> 100 µM (inactive)	> 100 µM (inactive)	> 100 µM (inactive)	> 100 µM (inactive)	> 100 µM (inactive)
CCC(=O)N/N=C(\C=C\c1cccc(O)c1)c1sc(Nc2ccc(C)cc2[N+](=O)[O-])nc1C	58.6 µM (inactive)	> 100 µM (inactive)	> 100 µM (inactive)	48.4 µM (inactive)	45.8 µM (inactive)				> 100 µM (inactive)	> 100 µM (inactive)			> 100 µM (inactive)	> 100 µM (inactive)	> 100 µM (inactive)	13.7 µM (inactive)	14.9 µM (inactive)	> 100 µM (inactive)	> 100 µM (inactive)	> 100 µM (inactive)
COC(=O)[C@H](C)N(C)C(=O)C(CC(N)=O)N(C)C(=O)[C@H](Cc1ccccc1)N(C)C(=O)[C@@H]1CCCN1C(=O)[C@H](C(C)C)N(C)C(=O)C(C(C)C)N(C)C(=O)[C@@H](NC(=O)OC(C)(C)C)C(C)C (stereo partly drawn) (Boc-V[ξNMeV][NMeV]P[NMeF][ξNMeN][NMeA]-OMe)	> 50 µM (inactive)	> 50 µM (inactive)	> 50 µM (inactive)	> 50 µM (inactive)	> 50 µM (inactive)	> 50 µM (inactive)	> 50 µM (inactive)	> 50 µM (inactive)	> 50 µM (inactive)	41.7 µM (inactive)	> 50 µM (inactive)	> 50 µM (inactive)	> 50 µM (inactive)	> 50 µM (inactive)	18.4 µM (inactive)	29 µM (inactive)	44 µM (inactive)	16.4 µM (inactive)	> 50 µM (inactive)	> 50 µM (inactive)
C[C@H]1C/C=C/[C@H]2[C@@H]3O[C@]3(C)[C@@H](C)[C@H]3[C@H](Cc4ccccc4)NC(=O)[C@]32OC(=O)O/C=C/[C@@](C)(O)C1=O [CYTOCHALASIN E]	0.0128 µM (active)	0.0161 µM (active)	0.0253 µM (active)		0.0431 µM (active)	0.0392 µM (active)	0.0231 µM (active)		0.0181 µM (active)	0.0638 µM (active)	18.9 µM (inactive)	< 0.01 µM (active)	0.0292 µM (active)	< 0.01 µM (active)	0.0759 µM (active)	0.0239 µM (active)	0.0102 µM (active)	17.5 µM (inactive)	0.0333 µM (active)	0.075 µM (active)
